# Literature values in patent publication US9669048B2, “Stable pharmaceutical composition of 5-aza-2′-deoxycitidine” (Fresenius Kabi Oncology Limited, priority 2012, dated 2017).
# Conditions: reconstituted/diluted solution
smiles,measurement,value
"Nc1ncn([C@H]2CC(O)[C@@H](CO)O2)c(=O)n1 (stereo partly shown) [Decitabine, 5-aza-2′-deoxycitidine]",Stability in aqueous media,highly unstable
